Source: PubChem BioAssay AID248 (DTP/NCI, 2004)
Several values for one entry are separate records, joined by “and”; a condition that tells them apart may be missing. Equal values may be shown once. Toxic doses and inconclusive results are not listed. No stated cut-off is given here; in the data, active means T/C of 150% or more; inactive means T/C below 125%.

Tested on: L1210 leukemia ip in BDF1 mice, survival T/C
Test: NCI In Vivo Anticancer Drug Screen. Data for tumor model L1210 Leukemia (intraperitoneal) in B6D2F1 (BDF1) mice
Settings: endpoint: mean survival time, higher = longer survival
Procedure, shortened: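 Transplantable tumor model; survival measured in treated vs vehicle control mice. Value = treated/control.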

[1] = dose: 100.0 mg/kg/injection, schedule: Q01DX009 (ip), vehicle: Klucel (hydroxypropylcellulose) (HPC)
[2] = dose: 200.0 mg/kg/injection, schedule: Q01DX009 (ip), vehicle: Klucel (hydroxypropylcellulose) (HPC)
[3] = dose: 400.0 mg/kg/injection, schedule: Q01DX009 (ip), vehicle: Klucel (hydroxypropylcellulose) (HPC)
[4] = dose: 100.0 mg/kg/injection, schedule: Q04DX003 (ip), vehicle: saline
[5] = dose: 200.0 mg/kg/injection, schedule: Q04DX003 (ip), vehicle: saline
[6] = dose: 400.0 mg/kg/injection, schedule: Q04DX003 (ip), vehicle: saline
[7] = dose: 100.0 mg/kg/injection, schedule: Q01DX009 (ip), vehicle: saline with Tween-80
[8] = dose: 200.0 mg/kg/injection, schedule: Q01DX009 (ip), vehicle: saline with Tween-80
[9] = dose: 400.0 mg/kg/injection, schedule: Q01DX009 (ip), vehicle: saline with Tween-80
[10] = dose: 400.0 mg/kg/injection, schedule: Q04DX002 (ip), vehicle: saline with Tween-80
[11] = dose: 100.0 mg/kg/injection, schedule: Q04DX003 (ip), vehicle: Klucel (hydroxypropylcellulose) (HPC)
[12] = dose: 200.0 mg/kg/injection, schedule: Q04DX003 (ip), vehicle: Klucel (hydroxypropylcellulose) (HPC)
[13] = dose: 400.0 mg/kg/injection, schedule: Q04DX003 (ip), vehicle: Klucel (hydroxypropylcellulose) (HPC)

Measured: T/C

O=S(=O)(N=C1C(Cl)=C(Cl)C(=NS(=O)(=O)c2ccccc2)C(Cl)=C1Cl)c1ccccc1
inactive: [1] 98 % of control | [2] 100 % of control | [3] 101 % of control

CCCCN(C(=O)C(F)(F)F)C(C)(C)C(SSSC(c1ccc(Cl)cc1)C(C)(C)N(CCCC)C(=O)C(F)(F)F)c1ccc(Cl)cc1 (configuration not stated)
inactive: dose: 100.0 mg/kg/injection, schedule: Q01DX009 (ip), vehicle: saline sonified 103 % of control | dose: 100.0 mg/kg/injection, schedule: Q04DX003 (ip), vehicle: saline sonified 96 % of control | dose: 200.0 mg/kg/injection, schedule: Q01DX009 (ip), vehicle: saline sonified 100 % of control | dose: 200.0 mg/kg/injection, schedule: Q04DX003 (ip), vehicle: saline sonified 94 % of control | dose: 400.0 mg/kg/injection, schedule: Q01DX009 (ip), vehicle: saline sonified 96 % of control | dose: 400.0 mg/kg/injection, schedule: Q04DX003 (ip), vehicle: saline sonified 97 % of control

CCOC(=O)N1C=Cn2c(cnc2C)C1O (configuration not stated)
inactive: dose: 50.0 mg/kg/injection, schedule: Q01DX009 (ip), vehicle: saline 94 % of control | dose: 100.0 mg/kg/injection, schedule: Q01DX009 (ip), vehicle: saline 94 % of control | dose: 100.0 mg/kg/injection, schedule: Q01DX009 (ip), vehicle: water 102 % of control | [4] 102 % of control | dose: 200.0 mg/kg/injection, schedule: Q01DX009 (ip), vehicle: saline 100 % of control and 91 % of control | dose: 200.0 mg/kg/injection, schedule: Q01DX009 (ip), vehicle: water 90 % of control | [5] 109 % of control | dose: 400.0 mg/kg/injection, schedule: Q01DX009 (ip), vehicle: water 93 % of control | [6] 107 % of control

CCCCCCC(O)CCc1ccccc1 (configuration not stated)
inactive: [1] 103 % of control | [2] 102 % of control | [3] 113 % of control

Cc1ccc(Nc2cc(=S)nc(N)[nH]2)cc1Cl
inactive: dose: 100.0 mg/kg/injection, schedule: Q01DX Z (ip), vehicle: methylcellulose (MC) 97 % of control | dose: 200.0 mg/kg/injection, schedule: Q01DX Z (ip), vehicle: methylcellulose (MC) 96 % of control

O=C1CC2=C(CC(O)=CC=C2)C(=O)O1
inactive: [4] 104 % of control | [5] 100 % of control | [6] 93 % of control

CC(C)N(C(=O)Nc1cccc(F)c1)C1CCCCC1
inactive: dose: 50.0 mg/kg/injection, schedule: Q01DX009 (ip), vehicle: gum acacia 105 % of control | dose: 100.0 mg/kg/injection, schedule: Q01DX009 (ip), vehicle: gum acacia 100 % of control and 88 % of control | dose: 200.0 mg/kg/injection, schedule: Q01DX009 (ip), vehicle: gum acacia 94 % of control | dose: 400.0 mg/kg/injection, schedule: Q01DX009 (ip), vehicle: gum acacia 90 % of control

CCC(C)OC(=O)Nc1cccc(O)c1 (configuration not stated)
inactive: [7] 91 % of control | [8] 89 % of control | [9] 90 % of control

CCCCCc1ccc(C)cc1OC(=O)CCl
inactive: dose: 28.0 mg/kg/injection, schedule: Q01DX Z (ip), vehicle: methylcellulose (MC) 97 % of control | dose: 42.0 mg/kg/injection, schedule: Q01DX Z (ip), vehicle: methylcellulose (MC) 97 % of control | dose: 62.0 mg/kg/injection, schedule: Q01DX Z (ip), vehicle: methylcellulose (MC) 92 % of control

Clc1ccc(OCc2sc3ccc(Cl)cc3c2CN2CCOCC2)cc1
inactive: dose: 100.0 mg/kg/injection, schedule: Q04DX003 (ip), vehicle: saline with Tween-80 91 % of control | dose: 200.0 mg/kg/injection, schedule: Q04DX003 (ip), vehicle: saline with Tween-80 90 % of control | dose: 400.0 mg/kg/injection, schedule: Q04DX003 (ip), vehicle: saline with Tween-80 91 % of control

CN=C(NN)NCCO
inactive: dose: 175.0 mg/kg/injection, schedule: Q01DX001 (ip), vehicle: saline 96 % of control | dose: 265.0 mg/kg/injection, schedule: Q01DX001 (ip), vehicle: saline 96 % of control | dose: 400.0 mg/kg/injection, schedule: Q01DX001 (ip), vehicle: saline 110 % of control | dose: 600.0 mg/kg/injection, schedule: Q01DX001 (ip), vehicle: saline 98 % of control

c1ccc(C(c2ccccc2)(c2ccccc2)c2ccc(Nc3ccc(C(c4ccccc4)(c4ccccc4)c4ccccc4)cc3)cc2)cc1
inactive: dose: 25.6 mg/kg/injection, schedule: Q04DX002 (ip), vehicle: saline with Tween-80 87 % of control | dose: 64.0 mg/kg/injection, schedule: Q04DX002 (ip), vehicle: saline with Tween-80 91 % of control | dose: 160.0 mg/kg/injection, schedule: Q04DX002 (ip), vehicle: saline with Tween-80 97 % of control | [10] 97 % of control

CN(C)c1ncnc2c1ncn2C1CCCO1 (configuration not stated)
inactive: dose: 25.0 mg/kg/injection, schedule: Q01DX Z (ip), vehicle: methylcellulose (MC) 97 % of control | dose: 50.0 mg/kg/injection, schedule: Q01DX Z (ip), vehicle: methylcellulose (MC) 92 % of control

COc1ccc(Cl)cc1NC(=O)Oc1c(C)cccc1C
inactive: dose: 100.0 mg/kg/injection, schedule: Q01DX001 (ip), vehicle: saline with Tween-80 106 % of control | [7] 96 % of control | dose: 100.0 mg/kg/injection, schedule: Q04DX002 (ip), vehicle: saline with Tween-80 95 % of control and 89 % of control | dose: 200.0 mg/kg/injection, schedule: Q01DX001 (ip), vehicle: saline with Tween-80 90 % of control | [8] 98 % of control | dose: 200.0 mg/kg/injection, schedule: Q04DX002 (ip), vehicle: saline with Tween-80 95 % of control and 97 % of control | dose: 400.0 mg/kg/injection, schedule: Q01DX001 (ip), vehicle: saline with Tween-80 96 % of control | [9] 102 % of control | [10] 95 % of control and 98 % of control

O=C(CC(O)(C(F)(F)F)C(F)(F)F)c1cccc2ccccc12
inactive: [11] 97 % of control | [12] 90 % of control | [13] 90 % of control

COc1cc2c3c(c1)/C(=N\Nc1ccccc1)CCN3CCC2
inactive: dose: 6.25 mg/kg/injection, schedule: Q01DX009 (ip), vehicle: DMSO 90 % of control | dose: 12.5 mg/kg/injection, schedule: Q01DX009 (ip), vehicle: DMSO 91 % of control | dose: 25.0 mg/kg/injection, schedule: Q01DX009 (ip), vehicle: DMSO 93 % of control and 90 % of control | dose: 25.0 mg/kg/injection, schedule: Q04DX003 (ip), vehicle: DMSO 95 % of control | dose: 50.0 mg/kg/injection, schedule: Q04DX003 (ip), vehicle: DMSO 95 % of control | dose: 100.0 mg/kg/injection, schedule: Q04DX003 (ip), vehicle: DMSO 100 % of control | dose: 200.0 mg/kg/injection, schedule: Q04DX003 (ip), vehicle: gum acacia 92 % of control

CCC(=O)/C=C/c1ccc(Cl)cc1
inactive: [1] 98 % of control | [11] 98 % of control | [2] 97 % of control | [12] 104 % of control | [3] 97 % of control | [13] 102 % of control

O=S(=O)(c1ccccc1)C(Br)c1ccc(F)cc1 (configuration not stated)
inactive: dose: 100.0 mg/kg/injection, schedule: Q04DX002 (ip), vehicle: Klucel (hydroxypropylcellulose) (HPC) 97 % of control | dose: 200.0 mg/kg/injection, schedule: Q04DX002 (ip), vehicle: Klucel (hydroxypropylcellulose) (HPC) 105 % of control | dose: 400.0 mg/kg/injection, schedule: Q04DX002 (ip), vehicle: Klucel (hydroxypropylcellulose) (HPC) 101 % of control
